Laboratory results published in patent US12433854B2, “Methods and compositions for preventing or treating calciphylaxis” (Epizon Pharma, Inc., priority 2018, dated 2025).
Where two headings read alike, the source gives them in different places.

Experiments:
[1] = test system: adult hemodialysis patients; conditions: cited from earlier work
[2] = test system: subjects at risk of development of calciphylaxis; experiment: MK-7 and/or MKH2-7 in subjects at risk for development of calciphylaxis (Example 1); format: in vivo, human; conditions: 10 mg, 25 mg or 50 mg orally once daily; blood samples; contemplated
Excerpt: This example describes the administration of MK-7 and/or MKH2-7 to subjects at risk for development of calciphylaxis, but who have not yet developed the characteristic skin lesions of calciphylaxis. Risk factors to be considered include, but are not limited to, diabetes mellitus, obesity, ESRD and/or hemodialysis, and prior treatment with warfarin (Nigwekar et al. (2016), supra). It is contemplated that administration of MK-7 and/or MKH2-7 can result in protection of the subjects from skin lesions and a change in certain biomarker levels indicative of the prevention of the development of calciphylaxis.
(§1) Subjects at risk of development of calciphylaxis orally receive MK-7 and/or MKH2-7 at 10 mg, 25 mg or 50 mg once daily for at least 2 weeks, 4 weeks, 6 weeks, 8 weeks, 3 months, 6 months, 1 year, or indefinitely. The dosage form is a 10 mg or 25 mg soft-gel capsule. Two 25 mg capsules are be administered once daily to the 50 mg dosage cohort.
It should be noted that not all subjects with elevated risk factors for calciphylaxis will develop the characteristic skin lesions of calciphylaxis. The intent of treating with MK-7 and/or MKH2-7 proactively (prior to a clinical diagnosis of calciphylaxis) is the prevention of lesion appearance. Thus, a drop in frequency of, or elimination of lesion appearances is contemplated to be a successful treatment.
Several biomarkers can be assessed to determine the efficacy of MK-7 and/or MKH2-7 at the three dose levels. Exemplary biomarkers include PIVKA-II; uncarboxylated and total Matrix Gla Protein (MGP); uncarboxylated, carboxylated and total osteocalcin protein; uncarboxylated, carboxylated and total Protein C, osteoprotegerin, Fetuin A and hs-CRP.
Blood samples are obtained to measure the biomarkers according to the following schedule. Blood sampling can occur during treatment on a weekly or monthly basis. It is contemplated that administration of MK-7 and/or MKH2-7 will result in (i) an increase in PIVKA-II, osteoprotegerin, or Fetuin A, which is indicative of slowing the progression of, arresting, or reversing, calciphylaxis, (ii) a decrease in uncarboxylated MGP, uncarboxylated osteocalcin, and/or uncarboxylated Protein C, which is indicative of slowing the progression of, arresting, or reversing calciphylaxis.
Further, pulse wave velocity (PWV) can be measured to assess arterial compliance. Improved vascular compliance will be indicative of slowing the progression of, arresting, or reversing calciphylaxis.

[3] = test system: subjects with ESRD receiving hemodialysis; experiment: MK-7 in subjects with stable ESRD receiving hemodialysis: biomarker changes day 1 to day 15; format: in vivo, human; conditions: 10 mg capsule of MK-7 per day orally for 14 days; change between day 1 and day 15
Method: This example describes the administration of MK-7 to subjects with ESRD receiving hemodialysis, and who are at risk of developing calciphylaxis. Administration of MK-7 can result in a change in certain biomarker levels indicative of the prevention of the development of calciphylaxis, or in the arrest or slowing down of the development of calciphylaxis. A number of subjects with stable ESRD but without calciphylaxis are enrolled in the study, whereupon the subjects orally receive a 10 mg capsule of MK-7 per day for 14 days. The levels of certain biomarkers, including uncarboxylated Matrix Gla Protein (MGP), uncarboxylated osteocalcin, osteoprotegerin, Fetuin A and hs-CRP were assessed on day 1 and on day 15 (the end of treatment), and the changes between day 1 and day 15 were calculated.

osteocalcin = conditions: 100-200 μg/d for 4 to 12 weeks; significantly and in a dose-dependent manner; cited from earlier work
[4] = test system: subjects diagnosed with calciphylaxis; experiment: MK-7 and/or MKH2-7 in subjects diagnosed with calciphylaxis (Example 2); format: in vivo, human; conditions: 10 mg, 25 mg or 50 mg orally once daily; contemplated
Excerpt: This example describes the administration of MK-7 and/or MKH2-7 to subjects diagnosed with calciphylaxis. Typical symptoms include presentation of characteristic painful skin lesions (Nigwekar et al. (2015) “Calciphylaxis: Risk Factors, Diagnosis, and Treatment.” Am. J. Kidney Dis. 66:133-46). Definitive diagnosis of calciphylaxis is achieved via skin biopsy (Nigwekar, 2015 supra). Further conditions need to be considered for correct diagnosis (Id.).
as §1, with “diagnosed with” for “at risk of development of”, “are” for “are be”
The arrest of, or decreases in lesion size and frequency is contemplated to be an indication of successful treatment.
Additionally, because calciphylaxis has a considerable mortality risk, increased overall survival time of diagnosed subjects will be an indication of treatment success. It is contemplated that administration of MK-7 and/or MKH2-7 according to the foregoing will result in an increased overall survival time of diagnosed subjects.

[5] = vitamin K2 supplementation, hemodialysis patients

Row | Compound | circulating PIVKA-II levels [1, 5] | circulating dp-ucMGP levels [1, 5] | circulating uncarboxylated osteocalcin levels [1, 5] | Fetuin A [2] | PIVKA-II [2] | osteoprotegerin [2] | uncarboxylated MGP [2] | uncarboxylated Protein C [2] | uncarboxylated osteocalcin [2] | average increase in Fetuin A [3] | average increase in osteoprotegerin [3] | average reduction in hs-CRP [3] | average reduction in uncarboxylated MGP [3] | average reduction in uncarboxylated osteocalcin [3] | ratio of carboxylated to undercarboxylated osteocalcin (osteocalcin) | response rate in the reduction in dp-ucMGP levels ([1]; group receiving 135 μg of menaquinone-7) | response rate in the reduction in dp-ucMGP levels ([1]; group receiving 360 μg of menaquinone-7) | overall survival time of diagnosed subjects [4]
1 | Vitamin K2 | dose- and time-dependent decrease | dose- and time-dependent decrease | dose- and time-dependent decrease | – | – | – | – | – | – | – | – | – | – | – | – | – | – | –
2 | CC(C)=CCC/C(C)=C/CC/C(C)=C/CC/C(C)=C/CC/C(C)=C/CC/C(C)=C/CC/C(C)=C/CC1=C(C)C(=O)c2ccccc2C1=O [MK-7, 2-[(2E,6E,10E,14E,18E,22E)-3,7,11,15,19,23,27-heptamethyloctacosa-2,6,10,14,18,22,26-heptaenyl]-3-methylnaphthalene-1,4-dione] | – | – | – | increase | increase | increase | decrease | decrease | decrease | 23.1% | 14.5% | −35.8% | −21.9% | −55.5% | increase | 77% | 93% | increased
3 | CC(C)=CCC/C(C)=C/CC/C(C)=C/CC/C(C)=C/CC/C(C)=C/CC/C(C)=C/CC/C(C)=C/Cc1c(C)c(O)c2ccccc2c1O [MKH2-7, 2-[(2E,6E,10E,14E,18E,22E)-3,7,11,15,19,23,27-heptamethyloctacosa-2,6,10,14,18,22,26-heptaenyl]-3-methylnaphthalene-1,4-diol] | – | – | – | increase | increase | increase | decrease | decrease | decrease | – | – | – | – | – | – | – | – | increased
